“Also recorded” adds a separate entry of the source.
Tests used:
[1] = system: PSEN-1, PSEN-2, Aβ1-42 and NICD in C6-C99 cells; test: Western blotting of amyloid-related proteins in C6-C99 cells; assay type: cell-based; conditions: C6-C99 cells
Text: FIG. 3B to FIG. 3E are the quantitative results of the Western blotting analysis of PSEN-1, PSEN-2, β-amyloid 1-42 (Aβ1-42) and NICD in FIG. 3A, respectively (p*<0.05, p**<0.01). The C6-C99 cells used in FIGS. 3A to 3E are glioma cells having a fragment of human amyloid precursor protein (APP). This fragment is a peptide fragment with 99 amino acids (APP-C99), which can express large amounts of PSEN-1, PSEN-2, and Aβ 1-42 after activation by cumate.
Western blotting is used to detect the expression levels of amyloid-related proteins, including PSEN-1, PSEN-2, and β-amyloid 1-42 (Aβ1-42), while simultaneously detect the expression level of Notch protein (Notch intracellular domain, NICD), which is an indicator of drug safety. If the Notch protein is not affected, then drug safety is indicated.
APP-C99 was transfected into C6 cells with the C99 peptide through cumate-inducible system activation.

C6-C99 cells = test: Flow cytometry of C6-C99 cells (cumate-induced fluorescence); assay type: cell-based; conditions: 100 μM n-BP
Description: Red peak, fluorescence of C6-C99 cells without cumate activation (background). Green peak, with cumate. Blue peak, with n-BP.
Then, C6-C99 cells were used to explore the effect of 100 μM n-butylidenephthalide (n-BP) on the expressions of miR-29b-2-5p, PSEN1, and Aβ1-42. […] Also shown in FIGS. 4G to 4I are the results of using miR-29b-2-5p inhibitor to evaluate whether n-BP inhibited PSEN1 and Aβ1-42 expression through miR-29b-2-5p. Specifically, miR-29b-2-5p inhibitor was transfected into C6-C99 cells and examined the inhibitory effect of n-BP treatment on PSEN1 and Aβ1-42 expression. It was observed that the addition of the miR-29b-2-5p inhibitor to C6-C99 cells abolished the 100 μM n-BP induced decrease in PSEN1 and Aβ1-42 expression.

Aβ1-42 = test: ELISA of Aβ1-42 in the medium of Ts-21 iPSCs; assay type: cell-based, human; conditions: 100 μM n-BP
[2] = system: Ts-21 iPSCs (neurons with Alzheimer's disease symptoms); test: Gene microarray analysis of n-BP-treated Ts-21 iPSCs; assay type: cell-based, human
Text: To examine the mechanism by which n-BP regulated miR expression, n-BP-treated Ts-21 iPSCs were subjected to gene microarray analysis. […] The 4 predicted binding energy between lnc-CYP3A43-2 and miR-29b-2-5p are the lowest (−11.49 Kcal/mol) among these four lncRNA and the predicted target sequence between lnc-CYP3A43-2 and miR-29b-2-5p are shown in FIG. 6G.
For example, ATP6V0D2 and IST1 are autophagy-related genes, and the expression levels thereof increase by 30.07 times and 15.72 times, respectively, after administration of n-butylidenephthalide, while genes related to inflammation including NT5E, STAP1, DEC1, ADAMDEC1 have their expression levels reduced by 12.6, 12.79, 28.35 and 43.55 times, respectively.

3xTg transgenic mice = test: Amyloid accumulation in the brain of 3xTg transgenic mice, single and combined treatment (FIG. 11); assay type: in vivo; conditions: 3xTg mice; 60 mg/kg n-butylidenephthalide, 200 mg/kg vitamin C, alone or combined; vs olive oil control
[3] = neurons with Alzheimer's disease symptoms, autophagy-related gene
[4] = neurons with Alzheimer's disease symptoms, inflammation-related gene

CCCC=C1OC(=O)c2ccccc21 [n-BP, n-butylidenephthalide]
Aβ1-42 expression ([1]; 100 μM n-BP): 40.53%±28.46% | PSEN1 expression ([1]; 100 μM n-BP): 37.33%±23.1% | Aβ1-42 expression ([1]; 100 μM, FIG. 3): significantly reduced | Notch protein (NICD) expression, indicator of drug safety ([1]; 100 μM, FIG. 3): not affected | PSEN-1 expression ([1]; 100 μM, FIG. 3): significantly reduced | PSEN-2 expression ([1]; 100 μM, FIG. 3): significantly reduced | Cumate expression / fluorescence of C6-C99 cells (C6-C99 cells): did not affect; also recorded: does not affect the fluorescence of C6-C99 | Aβ1-42 expression (ELISA, medium) (Aβ1-42): decrease | Multiple of change ([2]; gene A 21 P0014752, neurons with Alzheimer's disease symptoms): 17.29 | Multiple of change ([2]; gene ADAMDECI, neurons with Alzheimer's disease symptoms): −43.55 | Multiple of change ([2]; gene ATP6VOD2, neurons with Alzheimer's disease symptoms): 30.07 | Multiple of change ([2]; gene BG182298, neurons with Alzheimer's disease symptoms): −11.75 | Multiple of change ([2]; gene CTLA4, neurons with Alzheimer's disease symptoms): 29.78 | Multiple of change ([2]; gene DECI, neurons with Alzheimer's disease symptoms): −28.35 | Multiple of change ([2]; gene EN ST00000442006, neurons with Alzheimer's disease symptoms): −26.17 | Multiple of change ([2]; gene EN ST00000552046, neurons with Alzheimer's disease symptoms): −38.01 | Multiple of change ([2]; gene EN ST00000589476, neurons with Alzheimer's disease symptoms): −26.08 | Multiple of change ([2]; gene ENST00000427341, neurons with Alzheimer's disease symptoms): 36.49 | Multiple of change ([2]; gene ENST00000444130, neurons with Alzheimer's disease symptoms): 21.29 | Multiple of change ([2]; gene ENST00000496217, neurons with Alzheimer's disease symptoms): 50.33 | Multiple of change ([2]; gene ENST00000503666, neurons with Alzheimer's disease symptoms): 47.83 | Multiple of change ([2]; gene ENST00000554445, neurons with Alzheimer's disease symptoms): 27.81 | Multiple of change ([2]; gene ENST00000556397, neurons with Alzheimer's disease symptoms): 30.44 | Multiple of change ([2]; gene GATA3, neurons with Alzheimer's disease symptoms): 10.76 | Multiple of change ([2]; gene ISTI, neurons with Alzheimer's disease symptoms): 15.72 | Multiple of change ([2]; gene Inc-DCTD-2, neurons with Alzheimer's disease symptoms): 9.25 | Multiple of change ([2]; gene Inc-RP11-766F14.2.1-1, neurons with Alzheimer's disease symptoms): −34.38 | Multiple of change ([2]; gene LOC100131532, neurons with Alzheimer's disease symptoms): 47.19 | Multiple of change ([2]; gene LOC101060106, neurons with Alzheimer's disease symptoms): 22.27 | Multiple of change ([2]; gene LOC101928280, neurons with Alzheimer's disease symptoms): −43.14 | Multiple of change ([2]; gene LOC101928885, neurons with Alzheimer's disease symptoms): 21.40 | Multiple of change ([2]; gene MBOATI, neurons with Alzheimer's disease symptoms): −4.65 | Multiple of change ([2]; gene NCFIB, neurons with Alzheimer's disease symptoms): 34.03 | Multiple of change ([2]; gene NT5E, neurons with Alzheimer's disease symptoms): −12.60 | Multiple of change ([2]; gene SAP30L-AS1, neurons with Alzheimer's disease symptoms): 5.80 | Multiple of change ([2]; gene SH3RF3, neurons with Alzheimer's disease symptoms): 23.23 | Multiple of change ([2]; gene SPANXN3, neurons with Alzheimer's disease symptoms): 23.24 | Multiple of change ([2]; gene STAPI, neurons with Alzheimer's disease symptoms): −12.79 | Multiple of change ([2]; gene TAC4, neurons with Alzheimer's disease symptoms): 12.64 | Multiple of change ([2]; gene TDRD5, neurons with Alzheimer's disease symptoms): 31.41 | Multiple of change ([2]; gene THC2717143, neurons with Alzheimer's disease symptoms): 29.19 | Multiple of change ([2]; gene TMC3-AS1, neurons with Alzheimer's disease symptoms): 6.53 | Multiple of change ([2]; gene TSKS, neurons with Alzheimer's disease symptoms): 8.21 | Multiple of change ([2]; gene TTTY14, neurons with Alzheimer's disease symptoms): −22.89 | Multiple of change ([2]; gene XLOC 12 011873, neurons with Alzheimer's disease symptoms): 6.35 | Multiple of change ([2]; gene lnc-AL450307.1-1, neurons with Alzheimer's disease symptoms): −56.05 | Multiple of change ([2]; gene lnc-C50rf49-2, neurons with Alzheimer's disease symptoms): 34.90 | Multiple of change ([2]; gene lnc-CYP3A43-2, neurons with Alzheimer's disease symptoms): −60.06 | Multiple of change ([2]; gene lnc-FZDIO-3, neurons with Alzheimer's disease symptoms): 39.19 | Multiple of change ([2]; gene lnc-ILIRI-1, neurons with Alzheimer's disease symptoms): −39.19 | Multiple of change ([2]; gene lnc-KCNC2-4, neurons with Alzheimer's disease symptoms): −8.92 | Multiple of change ([2]; gene lnc-KCNG3-1, neurons with Alzheimer's disease symptoms): 29.33 | Multiple of change ([2]; gene lnc-KHDRBS3-9, neurons with Alzheimer's disease symptoms): 27.98 | Multiple of change ([2]; gene lnc-P2RY2-3, neurons with Alzheimer's disease symptoms): −105.51 | Multiple of change ([2]; gene lnc-PGPEPIL-I, neurons with Alzheimer's disease symptoms): 35.28 | Multiple of change ([2]; gene lnc-PTGES-I, neurons with Alzheimer's disease symptoms): 28.50 | Multiple of change ([2]; gene lnc-USP16-7, neurons with Alzheimer's disease symptoms): 31.72 | Multiple of change ([2]; gene lnc-ZBTB7C-1, neurons with Alzheimer's disease symptoms): −60.03 | Expression of four long noncoding RNA (lncRNA) ([2]; n-BP-treated Ts-21 iPSCs): less than −50 fold | ATP6V0D2 expression level, increase [2, 3]: 30.07 times | IST1 expression level, increase [2, 3]: 15.72 times | ADAMDEC1 expression level, reduced by [2, 4]: 43.55 times | DEC1 expression level, reduced by [2, 4]: 28.35 times | NT5E expression level, reduced by [2, 4]: 12.6 times | STAP1 expression level, reduced by [2, 4]: 12.79 times | Therapeutic effect on accumulation of amyloid in the brain (3xTg transgenic mice): significantly improved therapeutic effect

Reference: patent US20220096431A1, “PHARMACEUTICAL COMPOSITION AND METHOD FOR PREVENTING, TREATING AND DIAGNOSING A NEURODEGENERATIVE DISEASE” (BUDDHIST TZU CHI MEDICAL FOUNDATION, priority 2020, published 2022)
